Several values for one entry are separate records, joined by “and”; a condition that tells them apart may be missing. Equal values may be shown once.
Key:
[1] = target: Bcl-2-like protein 1 (Homo sapiens, UniProt Q07817)
Description: Inhibition of FITC-Bak-BH3 binding to Bcl-XL (unknown origin) after 1.5 hrs by fluorescence polarization assay

[2] = target: Apoptosis regulator Bcl-2 (Homo sapiens, UniProt P10415)
Description: Inhibition of FITC-Bak-BH3 binding to Bcl2 (unknown origin) after 1.5 hrs by fluorescence polarization assay

[3] = tested on: NCI-H929; assay: cells; details: Homo sapiens, NCI-H929, 72 h
[4] = in vitro; details: human, K562 cells
[5] = physchem; details: PAMPA
Description: Passive permeability of the compound by PAMPA

[6] = target: Induced myeloid leukemia cell differentiation protein Mcl-1 (Homo sapiens, UniProt Q07820)
Description: Inhibition of FITC-Bak-BH3/FITC-Bim-BH3 binding to MCL1 (172 to 327 residues) (unknown origin) expressed in Escherichia coli BL21 CodonPlus (DE3) RIL after 1.5 hrs by fluorescence polarization assay

[7] = tested on: MV4-11; assay: cells; details: Homo sapiens, MV4-11, 72 h
[8] = tested on: OPM-2; assay: cells; details: Homo sapiens, OPM-2, 72 h
[9] = cells; details: Homo sapiens, ALMC1, 72 h
[10] = cells; details: Homo sapiens, ALMC2, 72 h
[11] = tested on: NCI-H929

Chain of Induced myeloid leukemia cell differentiation protein Mcl-1 (Q07820 whole entry): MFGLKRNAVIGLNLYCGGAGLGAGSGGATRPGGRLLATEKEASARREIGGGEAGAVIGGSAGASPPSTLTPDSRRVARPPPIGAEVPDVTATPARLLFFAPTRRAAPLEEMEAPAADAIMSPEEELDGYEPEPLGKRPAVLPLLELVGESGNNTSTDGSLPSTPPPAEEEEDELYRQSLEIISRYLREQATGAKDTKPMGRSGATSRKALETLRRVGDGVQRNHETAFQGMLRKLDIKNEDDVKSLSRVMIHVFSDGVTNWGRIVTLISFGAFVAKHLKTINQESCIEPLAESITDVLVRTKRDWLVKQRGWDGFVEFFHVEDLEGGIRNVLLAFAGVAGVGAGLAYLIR
Chain of Bcl-2-like protein 1 (Q07817 whole entry): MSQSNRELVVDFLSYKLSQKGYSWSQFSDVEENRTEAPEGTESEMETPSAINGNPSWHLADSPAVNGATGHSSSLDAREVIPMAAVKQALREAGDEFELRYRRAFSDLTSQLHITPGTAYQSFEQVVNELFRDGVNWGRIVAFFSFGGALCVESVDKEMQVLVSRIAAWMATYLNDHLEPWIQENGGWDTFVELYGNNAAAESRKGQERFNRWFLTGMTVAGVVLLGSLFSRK
Chain of Apoptosis regulator Bcl-2 (P10415 whole entry): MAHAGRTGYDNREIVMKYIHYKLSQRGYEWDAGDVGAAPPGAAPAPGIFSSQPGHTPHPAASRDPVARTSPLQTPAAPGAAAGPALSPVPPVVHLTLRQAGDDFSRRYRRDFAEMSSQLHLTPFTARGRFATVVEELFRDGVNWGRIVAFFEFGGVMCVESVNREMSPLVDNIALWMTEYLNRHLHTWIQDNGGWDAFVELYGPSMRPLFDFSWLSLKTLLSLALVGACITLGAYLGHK

Cc1cc(OCCCc2c3n(c4c(-c5c(C)nn(C)c5C)c(Cl)ccc24)CCCN(c2cc(C(=O)O)cc4ccn(C)c24)C3=O)cc(C)c1Cl
Ki [1]: > 36 µM
Ki [2]: 0.52 µM
GI50 [3]: 6.1 µM
GI50 at 72 h [4]: > 12.5 µM

Cc1cc(OCCCc2c(C(=O)NCc3cc(C(=O)O)ccn3)[nH]c3c(-c4c(C)nn(C)c4C)cccc23)cc(C)c1Cl
Papp [5]: < 1.2 ×10⁻⁶ cm/s

Cc1cc(OCCCc2c3n(c4c(-c5c(C)nn(C)c5C)cc(Cl)cc24)CCCN(c2cc(C(=O)O)cc4c2ccn4C)C3=O)cc(C)c1Cl
Ki [6]: 0.13 µM
GI50 [3]: 10 µM
GI50 [7]: 9.1 µM
GI50 [8]: 8.9 µM
GI50 [9]: 7.7 µM
GI50 [10]: 12 µM
GI50 at 72 h [4]: 10 µM

Cc1cc(OCCCc2c(C(=O)Nc3ccc(C(=O)O)cn3)[nH]c3c(-c4c(C)nn(C)c4C)c(Cl)ccc23)cc(C)c1Cl
Papp [5]: < 2.3 ×10⁻⁶ cm/s

Cc1cc(OCCCc2c3n(c4c(-c5c(C)nn(C)c5C)c(Cl)ccc24)CCCN(Cc2cccc(C(=O)O)c2)C3=O)cc(C)c1Cl
Papp [5]: 143 ×10⁻⁶ cm/s

Cc1cc(OCCCc2c3n(c4c(-c5c(C)nn(C)c5C)c(Cl)ccc24)CCCN(c2cc(C(=O)O)cc4c2OCO4)C3=O)cc(C)c1Cl
Ki [1]: > 36 µM
Ki [2]: 0.55 µM
GI50 [3]: 2.3 µM
Papp [5]: 63 ×10⁻⁶ cm/s
GI50 at 72 h [4]: > 12.5 µM

Cc1cc(OCCCc2c(C(=O)Nc3cc(C(=O)O)ccn3)[nH]c3c(-c4c(C)nn(C)c4C)c(Cl)ccc23)cc(C)c1Cl
Papp [5]: < 3.3 ×10⁻⁶ cm/s

Cc1cc(OCCCc2c(C(=O)Nc3ccc(C(=O)O)cc3)[nH]c3c(-c4c(C)nn(C)c4C)c(Cl)ccc23)cc(C)c1Cl
Papp [5]: 1.2 ×10⁻⁶ cm/s

Cc1cc(OCCCc2c(C(=O)Nc3ccc(C(=O)O)o3)[nH]c3c(-c4c(C)nn(C)c4C)c(Cl)ccc23)cc(C)c1Cl
Papp [5]: 2.3 ×10⁻⁶ cm/s

Cc1cc(OCCCc2c3n(c4c(-c5c(C)nn(C)c5C)cc(Cl)cc24)CCCN(c2cc(C(=O)O)c4ccn(C)c4c2)C3=O)cc(C)c1Cl
Ki [6]: 0.094 µM
GI50 [3]: 6 µM
GI50 [7]: 6.2 µM
GI50 [8]: 5.7 µM
GI50 [9]: 6.6 µM
GI50 [10]: 9.9 µM
GI50 at 72 h [4]: 7.7 µM

Cc1cc(OCCCc2c3n(c4c(-c5c(C)nn(C)c5C)c(Cl)ccc24)CCCN(c2cn(C)c4cc(C(=O)O)ccc24)C3=O)cc(C)c1Cl
Ki [1]: > 36 µM
Ki [2]: 0.53 µM
GI50 [3]: 0.33 µM
GI50 at 72 h [4]: 5.8 µM

Cc1cc(OCCCc2c3n(c4c(-c5c(C)nn(C)c5C)c(Cl)ccc24)CCCN(c2cc(C(=O)O)c4ccn(C)c4c2)C3=O)cc(C)c1Cl
Ki [1]: 19 µM
Ki [2]: 0.58 µM
GI50 [3]: 1.4 to 1.6 µM
GI50 [7]: 0.77 µM
GI50 [8]: 1.4 µM
GI50 [9]: 1.5 µM
GI50 [10]: 3.2 µM
Papp [5]: 21 ×10⁻⁶ cm/s
GI50 at 72 h [4]: 11 to 11.5 µM

Cc1cc(OCCCc2c3n(c4c(-c5c(C)nn(C)c5C)c(Cl)ccc24)CCCN(c2cn(C)c4ccc(C(=O)O)cc24)C3=O)cc(C)c1Cl
Ki [1]: 26 µM
Ki [2]: 0.56 µM
GI50 [11]: 0.28 µM and 0.33 µM
GI50 [3]: 0.3 µM
GI50 at 72 h [4]: > 12.5 µM

Cc1cc(OCCCc2c(C(=O)NCc3ccc(C(=O)O)o3)[nH]c3ccccc23)cc(C)c1Cl
Ki [6]: 0.069 µM

COC(=O)CNC(=O)c1[nH]c2ccccc2c1CCCOc1cc(C)c(Cl)c(C)c1
Ki [6]: 3.2 µM

Cc1cc(OCCCc2c(C(=O)NCc3cccc(C(=O)O)c3)[nH]c3c(-c4c(C)nn(C)c4C)c(Cl)ccc23)cc(C)c1Cl
Papp [5]: < 7.6 ×10⁻⁶ cm/s

Cc1cc(OCCCc2c3n(c4c(-c5c(C)nn(C)c5C)c(Cl)ccc24)CCCN(c2cn(C)c4c(C(=O)O)cccc24)C3=O)cc(C)c1Cl
Ki [1]: 21 µM
Ki [2]: 0.31 µM
GI50 [3]: 1 µM
GI50 at 72 h [4]: > 9.2 µM

Cc1cc(OCCCc2c3n(c4c(-c5c(C)nn(C)c5C)c(Cl)ccc24)CCCN(c2cccc4c(C(=O)O)cccc24)C3=O)cc(C)c1Cl
Ki [1]: 11 µM
Ki [2]: 0.25 µM
GI50 [3]: 1 µM
Papp [5]: 4.4 ×10⁻⁶ cm/s
GI50 at 72 h [4]: 5.7 µM

Cc1cc(OCCCc2c3n(c4c(-c5c(C)nn(C)c5C)c(Cl)ccc24)CCCN(c2cccc(C(=O)O)c2)C3=O)cc(C)c1Cl
Papp [5]: 307 ×10⁻⁶ cm/s

Cc1cc(OCCCc2c(C(=O)NCC(=O)O)[nH]c3ccccc23)cc(C)c1Cl
Ki [6]: 0.62 µM

Cc1cc(OCCCc2c3n(c4c(-c5c(C)nn(C)c5C)c(Cl)ccc24)CCCN(c2ccc(C(=O)O)c4cccnc24)C3=O)cc(C)c1Cl
Ki [1]: > 36 µM
Ki [2]: 0.49 µM
GI50 [3]: 3.3 µM
Papp [5]: 122 ×10⁻⁶ cm/s
GI50 at 72 h [4]: 6.2 µM

Cc1cc(OCCCc2c(C(=O)Nc3cccc(C(=O)O)n3)[nH]c3c(-c4c(C)nn(C)c4C)c(Cl)ccc23)cc(C)c1Cl
Papp [5]: < 1.6 ×10⁻⁶ cm/s

Cc1cc(OCCCc2c(C(=O)NCCC(=O)O)[nH]c3ccccc23)cc(C)c1Cl
Ki [6]: 0.57 µM

Cc1cc(OCCCc2c3n(c4c(-c5c(C)nn(C)c5C)c(Cl)ccc24)CCCN(c2ccc(C(=O)O)c4ccn(C)c24)C3=O)cc(C)c1Cl
Ki [1]: > 36 µM
Ki [2]: 0.44 µM
GI50 [3]: 5.7 µM
Papp [5]: 4.8 ×10⁻⁶ cm/s
GI50 at 72 h [4]: > 12.5 µM

Cc1cc(OCCCc2c(C(=O)Nc3cncc(C(=O)O)c3)[nH]c3c(-c4c(C)nn(C)c4C)c(Cl)ccc23)cc(C)c1Cl
Papp [5]: < 1 ×10⁻⁶ cm/s

Source: ChEMBL document CHEMBL4020825, “Optimization of Potent and Selective Tricyclic Indole Diazepinone Myeloid Cell Leukemia-1 Inhibitors Using Structure-Based Design” (J Med Chem, 2018)
